{"source": "paper PMC12723470", "about": "“Heteromultivalent Nanogels as Highly Potent Inhibitors of Pseudomonas Aeruginosa” (Angewandte Chemie (International Ed. in English), 2025)", "system": "72 h mature P. aeruginosa biofilm", "assay": "Mature biofilm eradication assay", "format": "cell-based, Pseudomonas aeruginosa", "conditions": "24 h treatment", "protocol": "Inspired by the results of planktonic bactericidal experiments, we further evaluated the anti‐biofilm activity of the nanogels. […] This observation further reinforces our hypothesis that heteromultivalent nanogels with glyco‐residues and the BMAP‐18 peptide contribute to the long‐term eradication of P. aeruginosa. Further, a mature biofilm eradication assay was performed. […] More than 99.9% biofilm‐coated P. aeruginosa were inactivated (Figure 4a and S10). […] Overall, biofilm inhibition experiments with different control NG, NG‐Fuc/Gal and PNG‐Fuc/Gal reveal that PNG‐Fuc/‐Gal decomposes biofilm by a binding and killing mechanism. First, they bind with bacteria surface lectins via their specific sugar ligands and then inactivate using their surface BMAPs leading to a strong reduction in the biofilm matrix.\nFigure 4 a) P. aeruginosa biofilm matrix visualization after 72 h of treatment with samples (red: biofilm matrix, scale bar = 20 µm), b) Biofilm coated‐ P. aeruginosa viability after 12 h treatment of samples. c) Mature P. aeruginosa biofilm visualization after 12 h of treatment with samples, and statistics for thickness and roughness (mean ± SD, n = 7), d) Mature P. aeruginosa biofilm visualization after 24 h of treatment with samples, and statistics for thickness and roughness (mean ± SD, n = 7). 0.01 <*p< […], 0.001 <**p < 0.01, ***p < 0.001, compared with Control group."}
{"smiles": "NC[C@H]1O[C@H](O[C@H]2[C@H](O)[C@@H](O[C@H]3O[C@H](CO)[C@@H](O)[C@H](N)[C@H]3O)[C@H](N)C[C@@H]2N)[C@H](N)C[C@@H]1O", "note": "[tobramycin]", "values": [{"measurement": "change of mature biofilm when treatment extended from 12 h to 24 h", "result": "did not show significant changes"}]}
